≈ marks a conversion by molar mass, not a printed value. Calls of active or inactive are those of the source. No cut-off for these calls is given here.
Assays:
Listeria monocytogenes = assay: Antibacterial activity against Listeria monocytogenes; format: functional, organism-based
Staphylococcus aureus = assay: Antibacterial activity against methicillin-resistant Staphylococcus aureus; format: functional, organism-based
Enterococcus = assay: Antibacterial activity against vancomycin-resistant Enterococcus; format: functional, organism-based
Candida albicans [1] = assay: Antifungal activity against fluconazole/ITC-resistant Candida albicans ATCC 10231 measured after 48 hrs by CLSI M27-A3 protocol based method; format: functional; settings: ATCC 10231, 48 h
Candida albicans [2] = assay: Antifungal activity against fluconazole/ITC-resistant Candida albicans ATCC 64124 measured after 48 hrs by CLSI M27-A3 protocol based method; format: functional; settings: ATCC 64124, 48 h
Candida albicans [3] = assay: Antifungal activity against fluconazole/ITC-susceptible Candida albicans ATCC MYA-2876 measured after 48 hrs by CLSI M27-A3 protocol based method; format: functional; settings: ATCC MYA-2876, 48 h
Candida albicans [4] = assay: Antifungal activity against fluconazole/ITC-resistant Candida albicans ATCC 90819 measured after 48 hrs by CLSI M27-A3 protocol based method; format: functional; settings: ATCC 90819, 48 h
Candida albicans [5] = assay: Antifungal activity against fluconazole/ITC-susceptible Candida albicans ATCC MYA-2310 measured after 48 hrs by CLSI M27-A3 protocol based method; format: functional; settings: ATCC MYA-2310, 48 h
Candida albicans [6] = assay: Antifungal activity against fluconazole/ITC-resistant Candida albicans ATCC MYA-1237 measured after 48 hrs by CLSI M27-A3 protocol based method; format: functional; settings: ATCC MYA-1237, 48 h
Candida albicans [7] = assay: Antifungal activity against fluconazole/ITC-resistant Candida albicans ATCC MYA-1003 measured after 48 hrs by CLSI M27-A3 protocol based method; format: functional; settings: ATCC MYA-1003, 48 h
Nakaseomyces glabratus = assay: Antifungal activity against Candida glabrata ATCC 2001 measured after 48 hrs by CLSI M27-A3 protocol based method; format: functional; settings: CBS 138, 48 h
Pichia kudriavzevii = assay: Antifungal activity against Candida krusei ATCC 6258 measured after 48 hrs by CLSI M27-A3 protocol based method; format: functional; settings: ATCC 6258, 48 h
Candida parapsilosis = assay: Antifungal activity against Candida parapsilosis ATCC 22019 measured after 48 hrs by CLSI M27-A3 protocol based method; format: functional; settings: Lodderomyces parapsilosis, ATCC 22019, 48 h
Aspergillus flavus = assay: Antifungal activity against Aspergillus flavus ATCC MYA-3631 measured after 48 hrs by CLSI M38-A2 protocol based method; format: functional; settings: ATCC MYA-3631, 48 h
Aspergillus nidulans = assay: Antifungal activity against Aspergillus nidulans ATCC 38163 measured after 48 hrs by CLSI M38-A2 protocol based method; format: functional; settings: ATCC 38163, 48 h
Aspergillus terreus = assay: Antifungal activity against Aspergillus terreus ATCC MYA-3633 measured after 48 hrs by CLSI M38-A2 protocol based method; format: functional; settings: ATCC MYA-3633, 48 h
A549 = assay: Cytotoxicity against human A549 cells after 24 hrs by resazurin based assay; format: cell-based; settings: a549, 24 h
BEAS-2B = assay: Cytotoxicity against human BEAS2B cells after 24 hrs by resazurin based assay; format: cell-based
[8] = Selectivity index, ratio of CC50 for human A549 cells to MIC for fluconazole/ITC-resistant Candida albicans ATCC 10231; format: toxicity; settings: read-out: Selectivity Index
[9] = Selectivity index, ratio of CC50 for human A549 cells to MIC for fluconazole/ITC-resistant Candida albicans ATCC 64124; format: toxicity; settings: read-out: Selectivity Index
[10] = Selectivity index, ratio of CC50 for human A549 cells to MIC for fluconazole/ITC-susceptible Candida albicans ATCC MYA-2876; format: toxicity; settings: read-out: Selectivity Index
[11] = Selectivity index, ratio of CC50 for human A549 cells to MIC for fluconazole/ITC-resistant Candida albicans ATCC 90819; format: toxicity; settings: read-out: Selectivity Index
[12] = Selectivity index, ratio of CC50 for human A549 cells to MIC for fluconazole/ITC-susceptible Candida albicans ATCC MYA-2310; format: toxicity; settings: read-out: Selectivity Index
[13] = Selectivity index, ratio of CC50 for human A549 cells to MIC for fluconazole/ITC-resistant Candida albicans ATCC MYA-1237; format: toxicity; settings: read-out: Selectivity Index
[14] = Selectivity index, ratio of CC50 for human A549 cells to MIC for fluconazole/ITC-resistant Candida albicans ATCC MYA-1003; format: toxicity; settings: read-out: Selectivity Index
[15] = Selectivity index, ratio of CC50 for human A549 cells to MIC for Candida glabrata ATCC 2001; format: toxicity; settings: read-out: Selectivity Index
[16] = Selectivity index, ratio of CC50 for human A549 cells to MIC for Candida krusei ATCC 6258; format: toxicity; settings: read-out: Selectivity Index
[17] = Selectivity index, ratio of CC50 for human A549 cells to MIC for Candida parapsilosis ATCC 22019; format: toxicity; settings: read-out: Selectivity Index
[18] = Selectivity index, ratio of CC50 for human A549 cells to MIC for Aspergillus flavus ATCC MYA-3631; format: toxicity; settings: read-out: Selectivity Index
[19] = Selectivity index, ratio of CC50 for human A549 cells to MIC for Aspergillus nidulans ATCC 38163; format: toxicity; settings: read-out: Selectivity Index
[20] = Selectivity index, ratio of CC50 for human A549 cells to MIC for Aspergillus terreus ATCC MYA-3633; format: toxicity; settings: read-out: Selectivity Index
[21] = Hemolytic activity in mouse RBC at […] after 1 hr relative to control; format: ADME, cell-based, Erythrocyte; settings: red blood cells (erythrocytes), read-out: Activity; note: tested at 0.48 µg/mL
[22] = Hemolytic activity in mouse RBC at […] ug/ml after 1 hr relative to control; format: ADME, cell-based, Erythrocyte; settings: red blood cells (erythrocytes), read-out: Activity
[23] = Hemolytic activity in mouse RBC at 1.95 ug/ml after 1 hr relative to control; format: ADME, cell-based, Erythrocyte; settings: red blood cells (erythrocytes), read-out: Activity
[24] = Hemolytic activity in mouse RBC at 3.9 ug/ml after 1 hr relative to control; format: ADME, cell-based, Erythrocyte; settings: red blood cells (erythrocytes), read-out: Activity
[25] = Hemolytic activity in mouse RBC at 7.8 ug/ml after 1 hr relative to control; format: ADME, cell-based, Erythrocyte; settings: red blood cells (erythrocytes), read-out: Activity
[26] = Hemolytic activity in mouse RBC at 31.3 ug/ml after 1 hr relative to control; format: ADME, cell-based, Erythrocyte; settings: red blood cells (erythrocytes), read-out: Activity
[27] = Hemolytic activity in mouse RBC at 62.5 ug/ml after 1 hr relative to control; format: ADME, cell-based, Erythrocyte; settings: red blood cells (erythrocytes), read-out: Activity
[28] = Selectivity index, ratio of compound concentration showing <20 to <25% hemolysis in mouse RBC to MIC for fluconazole/ITC-resistant Candida albicans ATCC 10231; format: toxicity; settings: red blood cells (erythrocytes), read-out: Selectivity Index
[29] = Selectivity index, ratio of compound concentration showing <20 to <25% hemolysis in mouse RBC to MIC for fluconazole/ITC-resistant Candida albicans ATCC 64124; format: toxicity; settings: red blood cells (erythrocytes), read-out: Selectivity Index
[30] = Selectivity index, ratio of compound concentration showing <20 to <25% hemolysis in mouse RBC to MIC for fluconazole/ITC-susceptible Candida albicans ATCC MYA-2876; format: toxicity; settings: red blood cells (erythrocytes), read-out: Selectivity Index
[31] = Selectivity index, ratio of compound concentration showing <20 to <25% hemolysis in mouse RBC to MIC for fluconazole/ITC-resistant Candida albicans ATCC 90819; format: toxicity; settings: red blood cells (erythrocytes), read-out: Selectivity Index
[32] = Selectivity index, ratio of compound concentration showing <20 to <25% hemolysis in mouse RBC to MIC for fluconazole/ITC-susceptible Candida albicans ATCC MYA-2310; format: toxicity; settings: red blood cells (erythrocytes), read-out: Selectivity Index
[33] = Selectivity index, ratio of compound concentration showing <20 to <25% hemolysis in mouse RBC to MIC for fluconazole/ITC-resistant Candida albicans ATCC MYA-1237; format: toxicity; settings: red blood cells (erythrocytes), read-out: Selectivity Index
[34] = Selectivity index, ratio of compound concentration showing <20 to <25% hemolysis in mouse RBC to MIC for fluconazole/ITC-resistant Candida albicans ATCC MYA-1003; format: toxicity; settings: red blood cells (erythrocytes), read-out: Selectivity Index
[35] = Selectivity index, ratio of compound concentration showing <20 to <25% hemolysis in mouse RBC to MIC for Candida glabrata ATCC 2001; format: toxicity; settings: red blood cells (erythrocytes), read-out: Selectivity Index
[36] = Selectivity index, ratio of compound concentration showing <20 to <25% hemolysis in mouse RBC to MIC for Candida krusei ATCC 6258; format: toxicity; settings: red blood cells (erythrocytes), read-out: Selectivity Index
[37] = Selectivity index, ratio of compound concentration showing <20 to <25% hemolysis in mouse RBC to MIC for Candida parapsilosis ATCC 22019; format: toxicity; settings: red blood cells (erythrocytes), read-out: Selectivity Index
[38] = Selectivity index, ratio of compound concentration showing <20 to <25% hemolysis in mouse RBC to MIC for Aspergillus flavus ATCC MYA-3631; format: toxicity; settings: red blood cells (erythrocytes), read-out: Selectivity Index
[39] = Selectivity index, ratio of compound concentration showing <20 to <25% hemolysis in mouse RBC to MIC for Aspergillus nidulans ATCC 38163; format: toxicity; settings: red blood cells (erythrocytes), read-out: Selectivity Index
[40] = Selectivity index, ratio of compound concentration showing <20 to <25% hemolysis in mouse RBC to MIC for Aspergillus terreus ATCC MYA-3633; format: toxicity; settings: red blood cells (erythrocytes), read-out: Selectivity Index

With `C(=N\Nc1ccccc1)/c1ccc(-c2ccc(/C=N/Nc3ccccc3)cc2)cc1` the Activity (Listeria monocytogenes) was “inactive”, the Activity (Staphylococcus aureus) was “inactive” and the Activity (Enterococcus) was “inactive”. For the same compound, the MIC (Candida albicans [1]) was 7.8 µg/mL (≈ 20 µM), the MIC (Candida albicans [2]) was > 31.3 µg/mL and the MIC (Candida albicans [3]) was > 31.3 µg/mL. For the same compound, the MIC (Candida albicans [4]) was 31.3 µg/mL (≈ 80.2 µM), the MIC (Candida albicans [5]) was > 31.3 µg/mL and the MIC (Candida albicans [6]) was > 31.3 µg/mL. For the same compound, the MIC (Candida albicans [7]) was > 31.3 µg/mL, the MIC (Nakaseomyces glabratus) was > 31.3 µg/mL and the MIC (Pichia kudriavzevii) was > 31.3 µg/mL. The MIC (Candida parapsilosis) was > 31.3 µg/mL, the MIC (Aspergillus flavus) was 3.9 µg/mL (≈ 9.99 µM) and the MIC (Aspergillus nidulans) was 1.95 µg/mL (≈ 4.99 µM). The MIC (Aspergillus terreus) was 15.6 µg/mL (≈ 39.9 µM), the CC50 (A549) was 17.7 µg/mL (≈ 45.3 µM) and the CC50 (BEAS-2B) was 11 µg/mL (≈ 28.2 µM). The selectivity ratio [8] was 2.3, the selectivity ratio [9] was 0.6 and the selectivity ratio [10] was 0.6. For the same compound, the selectivity ratio [11] was 0.6, the selectivity ratio [12] was 0.6 and the selectivity ratio [13] was 0.6. It also gave a selectivity ratio [14] of 0.6, a selectivity ratio [15] of 0.6 and a selectivity ratio [16] of 0.6. It also gave a selectivity ratio [17] of 0.6, a selectivity ratio [18] of 4.5 and a selectivity ratio [19] of 9.1. For the same compound, the selectivity ratio [20] was 1.1, the hemolysis at 1 h, […] [21] was 2% and the hemolysis at 1 h, 15.6 ug/ml ([22]; at 15.6 µg/mL) was 14.1%. For the same compound, the hemolysis at 1 h, 0.975 ug/ml [22] was 0.1%, the hemolysis at 1 h, 1.95 ug/ml [23] was 3.7% and the hemolysis at 1 h, 3.9 ug/ml [24] was 3.4%. It also gave a hemolysis at 1 h, 7.8 ug/ml [25] of 2.9%, a hemolysis at 1 h, 31.3 ug/ml [26] of 10.8% and a hemolysis at 1 h, 62.5 ug/ml [27] of 17.2%. It also gave a selectivity ratio [28] of 1 to 32, a selectivity ratio [29] of 1 to 32 and a selectivity ratio [30] of 1 to 32. It also gave a selectivity ratio [31] of 1 to 32, a selectivity ratio [32] of 1 to 32 and a selectivity ratio [33] of 1 to 32. It also gave a selectivity ratio [34] of 1 to 32, a selectivity ratio [35] of 1 to 32 and a selectivity ratio [36] of 1 to 32. For the same compound, the selectivity ratio [37] was 1 to 32, the selectivity ratio [38] was 1 to 32 and the selectivity ratio [39] was 1 to 32. The selectivity ratio [40] was 1 to 32.

Source: ChEMBL document CHEMBL4411307, “N,N'-diaryl-bishydrazones in a biphenyl platform: Broad spectrum antifungal agents” (Eur J Med Chem, 2019)
